Reference: patent publication US20190365878A1, “PHARMACEUTICAL TREATMENTS FOR PREVENTING OR TREATING PANCREATIC CANCER” (THE JOHNS HOPKINS UNIVERSITY, priority 2016, published 2019)

Tested on: Panc02 murine pancreatic adenocarcinoma cells
Test: hemi-splenectomy liver metastasis mouse model, 90 day survival
Format: in vivo, C57/B16 mice
Details: 28-day dosing scheme, followed 90 days
Source text: Survival Proportions: 90 Day survival of all groups.
The inventors performed hemi-splenectomy with the injection of 2×10^6 Panc02 murine pancreatic adenocarcinoma cells on C57/B16 mice, aged 9-10 weeks to model metastasis of pancreatic tumor cells to the liver. Mice were divided into treatment groups and dosed with cyclophosphamide and GVAX vaccine as well as an oral IDO1 inhibitor PF-06840003, according to a 28-day dosing scheme.
An oral methocel vehicle was given as a placebo treatment. The IDO inhibitor PF-06840003 and oral methocel compounds were administered twice daily by oral gavage, starting on post-operative day 3 and extending through post-operative day 28. Cyclophosphamide was administered on post-operative day 3. GVAX vaccine was administered on post-operative days 4, 7, 14 and 21. Mice were followed for survival for 90 days.

Which survival does the source give for `O=C1CC(c2c[nH]c3ccc(F)cc23)C(=O)N1` (stereo not shown) [PF-06840003] here?
Its survival is “no significant effect on survival”.
